Experimental data published in US6083922A (priority 1997, dated 2000).
≈ marks a conversion by molar mass, not a printed value. Where two headings read alike, the source gives them in different places.

Key:
[1] = test system: Multidrug-Resistant Strains of M. tuberculosis; assay: microbe, parasite or virus in culture; type: cell-based, Mycobacterium tuberculosis; conditions: for MIC: Mycobacterium tuberculosis
[2] = test system: drug-sensitive and multidrug-resistant strains of M. tuberculosis; assay: Survey of tobramycin MICs; type: cell-based; conditions: Mycobacterium tuberculosis

For `NC[C@H]1O[C@H](O[C@H]2[C@H](O)[C@@H](O[C@H]3O[C@H](CO)[C@@H](O)[C@H](N)[C@H]3O)[C@H](N)C[C@@H]2N)[C@H](N)C[C@@H]1O` [tobramycin], the “sensitivity of multidrug-resistant strains to tobramycin” value [1] was “sensitive and nonresistant”, the MIC ([1]; read-out: MIC Tobramycin, strain TN565 (resistant to INH, RIF, SM, KAN)) was over 128 µg/mL and the MIC ([1]; read-out: MIC Tobramycin, strain TN576 (resistant to INH, RIF, SM, EMB, KAN)) was over 128 µg/mL. The MIC ([1]; read-out: MIC Tobramycin, strain TN587 (resistant to INH, RIF, SM, EMB, KAN)) was over 128 µg/mL, the MIC ([1]; read-out: MIC Tobramycin, strain TN702 (resistant to INH, SM)) was 4 µg/mL (≈ 8.56 µM) and the MIC ([1]; read-out: MIC Tobramycin, strain TN715 (resistant to INH, RIF, SM)) was 4 µg/mL (≈ 8.56 µM). For the same compound, the MIC ([1]; read-out: MIC Tobramycin, strain TN768 (resistant to INH, RIF, SM, EMB)) was 8 µg/mL (≈ 17.1 µM), the MIC ([1]; read-out: MIC Tobramycin, strain TN1195 (resistant to INH, SM)) was 4 µg/mL (≈ 8.56 µM) and the MIC ([1]; read-out: MIC Tobramycin, strain TN1314 (resistant to INH, RIF)) was 8 µg/mL (≈ 17.1 µM). It also gave an MIC ([1]; read-out: MIC Tobramycin, strain TN1811 (resistant to INH, RIF, SM, EMB)) of 4 µg/mL (≈ 8.56 µM), an MIC ([1]; read-out: MIC Tobramycin, strain TN2015 (resistant to INH, RIF, SM, KAN)) of over 128 µg/mL and an MIC ([1]; read-out: MIC Tobramycin, strain TN2557 (resistant to INH, RIF, SM)) of 8 µg/mL (≈ 17.1 µM). It also gave an MIC ([1]; read-out: MIC Tobramycin, strain TN3806 (resistant to INH, RIF, SM, EMB, KAN)) of over 128 µg/mL, an MIC ([1]; read-out: activity against multidrug-resistant strains) of 4 to 8 µg/mL (≈ 8.56 to 17.1 µM) and an MIC [2] of over 128 µg/mL. It also gave an MIC ([2]; read-out: minimal inhibitory concentrations (MICs)) of at most 8 µg/mL.
